This passage reports Kd and stoichiometry N results from publication PMC2806516 (Biochemistry, 2010).

The target of experiment [1] is T1, HpaA (Pseudomonas aeruginosa, UniProt Q9HWT7).
T1 sequence (Q9HWT7 1-520): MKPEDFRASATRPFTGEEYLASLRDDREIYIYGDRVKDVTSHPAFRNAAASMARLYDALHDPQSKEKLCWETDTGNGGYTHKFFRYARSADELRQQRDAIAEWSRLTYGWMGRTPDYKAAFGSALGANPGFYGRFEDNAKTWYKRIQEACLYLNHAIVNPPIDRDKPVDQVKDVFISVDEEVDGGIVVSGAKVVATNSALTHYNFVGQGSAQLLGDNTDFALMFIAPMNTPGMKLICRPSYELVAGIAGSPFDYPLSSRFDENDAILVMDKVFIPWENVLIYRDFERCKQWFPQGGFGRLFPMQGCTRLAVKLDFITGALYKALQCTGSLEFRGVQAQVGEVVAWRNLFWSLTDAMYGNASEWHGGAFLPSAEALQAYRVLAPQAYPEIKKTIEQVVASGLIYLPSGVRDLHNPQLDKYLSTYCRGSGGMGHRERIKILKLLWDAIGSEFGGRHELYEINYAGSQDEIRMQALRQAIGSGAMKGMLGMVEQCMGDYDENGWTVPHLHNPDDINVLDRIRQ
Nature of the experiment: stopped-flow. In kind it is binding.

In experiment [2] the target is T2, HpaC (Pseudomonas aeruginosa, UniProt Q9HWT6).
T2 sequence (Q9HWT6 1-170): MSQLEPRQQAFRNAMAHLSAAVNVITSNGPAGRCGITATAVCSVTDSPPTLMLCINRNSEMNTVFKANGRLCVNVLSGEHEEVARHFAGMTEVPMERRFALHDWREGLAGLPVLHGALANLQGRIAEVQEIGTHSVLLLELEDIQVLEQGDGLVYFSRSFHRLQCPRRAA
As to the kind of experiment: stopped-flow. In kind it is binding.

Experiment [3] concerns the target T2, HpaC. Nature of the experiment: fluorimetric titration. The experiment is classed as binding.
Experiment [4] has as its target T1, HpaA. As to the kind of experiment: absorption spectral titration. In kind it is binding.
The target of experiment [5] is HpaA, oxygenase of p-hydroxyphenylacetate 3-hydroxylase (HPAH) from Pseudomonas aeruginosa, N-terminal His-tagged (P. aeruginosa). As to the kind of experiment: SEC. (In general: SEC sorts molecules by how far they enter the pores of the column.)

`Cc1cc2c(cc1C)N(C[C@H](O)[C@H](O)[C@H](O)COP(=O)(O)OP(=O)(O)OC[C@H]1O[C@@H](n3cnc4c(N)ncnc43)[C@H](O)[C@@H]1O)c1[nH]c(=O)[nH]c(=O)c1N2` [FADH^−]: the Kd on HpaA [1] was at most 2 µM; at HpaC [2], around 20 µM.
Take `Cc1cc2nc3c(=O)[nH]c(=O)nc-3n(C[C@H](O)[C@H](O)[C@H](O)COP(=O)(O)OP(=O)(O)OC[C@H]3O[C@@H](n4cnc5c(N)ncnc54)[C@H](O)[C@@H]3O)c2cc1C` [FAD]: the equilibrium dissociation constant (Kd) is 3 µM on HpaC [3] and at least 250 µM at HpaA [4].
In experiment [5], “HpaA, oxygenase of p-hydroxyphenylacetate 3-hydroxylase (HPAH) from Pseudomonas aeruginosa, N-terminal His-tagged (enzyme)” had a stoichiometry N of 2.

Usually Kd stands for the constant that tells how readily two partners part at equilibrium. Read a low Kd as tighter binding. For orientation: stoichiometry N means the number of molecules, sites or subunits per partner or assembly.
